Laboratory results published in patent US20240336617A1, “Substituted Bimane Compounds and Methods of Use Thereof” (THE TRUSTEES OF THE UNIVERSITY OF PENNSYLVANIA, priority 2023, published 2024).

What was measured:
[1] = pH measurements (absorption and emission); assay type: physicochemical; settings: pH 2-11
Procedure: 10 mM stock solutions of 7h, 7j, and 7k in DMSO were individually diluted into ACN/PBS buffer (50:50 v/v) having different pH ranging from pH 2-11 with 25 μM (500 μL) of final concentration. For pH screening of 7h and 7j, PBS buffer solutions were prepared, then adjusted the pH 2, 4, and 7 by adding 6 M hydrochloric acid, pH 9 and 11 by adding 5 M sodium hydroxide. For pH screening of 7k, pH 4.4 and 7.4 were prepared by citric acid/phosphate buffer. Then, the absorption and fluorescence spectra were recorded by using Thermo Scientific Genesys 150 UV-Vis spectrometer, followed by PTI QuantaMaster™ 40 fluorescence spectrometer by excitation with maximum absorption wavelength.
pH measurements. 10 mM stock solutions of 5h and 5j in DMSO were individually diluted into ACN/PBS buffer (50:50 v/v) having different pH ranging from pH 2-11 with 25 µM (500 μL) of final concentration. For pH screening of 5h and 5j, PBS buffer solutions were prepared, then adjusted the pH 2, 4, and 7 by adding 6 M hydrochloric acid, pH 9 and 11 by adding 5 M sodium hydroxide. Then, we have recorded the absorption and fluorescence spectra by using Thermo Scientific Genesys 150 UV-Vis spectrometer, followed by PTI QuantaMaster™ 40 fluorescence spectrometer by excitation with maximum absorption wavelength.

[2] = Fluorescent quantum yield (QY) measurements; assay type: physicochemical; settings: absence of αS PFFs (−); 100 μM dye
[3] = target: T1, αS fibrils (Homo sapiens, UniProt P37840); test: Competition binding with ThT on αS fibrils
T1 construct: intein-His6 (C, cleaved yes); made in house; host or cells: Escherichia coli BL21

[4] = target: T2, tau fibrils (Homo sapiens, UniProt P10636); test: Fluorescence and excitation spectra with tau fibrils; assay type: binding
T2 construct: made in house; host or cells: E. coli BL21
Procedure: (§1) Fluorescence measurements were performed using a PTI QuantaMaster™ 40 fluorescence spectrometer. Fluorescence spectra of 5 μM probes (concentrated stock solution prepared as 10 mM in DMSO) (7j, 7k, 7l, 7m, and ThT) in PBS buffer were measured in the absence and presence of 25 μM tau fibrils (stock solution 32 μM tau fibrils in PBS buffer).
as §1, with “Excitation spectral measurements” for “Fluorescence measurements”, “spectrometer. Excitation” for “spectrometer. Fluorescence”
as §1, with “QuantaMaster” for “QuantaMaster™”, “(5j, 5k,” for “(7j, 7k, 7l, 7m,”
Excitation spectral measurements were performed using a PTI QuantaMaster™ 40 fluorescence spectrometer. Excitation spectra of 5 μM probes (concentrated stock solution prepared as 10 mM in DMSO) (5j, 5k, and ThT) in PBS buffer were measured in the absence and presence of 25 μM tau fibrils (stock solution 32 μM tau fibrils in PBS buffer). […]

[5] = target: bovine serum albumin (BSA) (Bos taurus, UniProt P02769); test: Fluorescence in the presence of BSA; assay type: binding
bovine serum albumin (BSA), sequence (P02769 25-607): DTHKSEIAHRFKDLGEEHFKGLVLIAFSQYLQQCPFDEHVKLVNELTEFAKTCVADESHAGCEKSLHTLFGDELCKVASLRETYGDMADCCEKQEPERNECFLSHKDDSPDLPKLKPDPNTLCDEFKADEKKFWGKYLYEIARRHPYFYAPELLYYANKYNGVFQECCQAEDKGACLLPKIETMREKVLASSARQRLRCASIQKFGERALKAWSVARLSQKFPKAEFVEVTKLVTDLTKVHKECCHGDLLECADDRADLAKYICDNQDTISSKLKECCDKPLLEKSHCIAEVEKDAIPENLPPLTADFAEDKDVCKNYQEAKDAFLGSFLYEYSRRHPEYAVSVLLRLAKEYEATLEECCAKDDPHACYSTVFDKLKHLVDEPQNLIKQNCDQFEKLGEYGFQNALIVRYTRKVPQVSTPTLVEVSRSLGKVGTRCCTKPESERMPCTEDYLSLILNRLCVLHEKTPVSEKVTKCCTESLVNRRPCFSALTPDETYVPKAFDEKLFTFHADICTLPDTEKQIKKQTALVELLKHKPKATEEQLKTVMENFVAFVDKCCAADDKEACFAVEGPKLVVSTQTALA

T2 sequence (P10636 1-412 isoform P10636-7): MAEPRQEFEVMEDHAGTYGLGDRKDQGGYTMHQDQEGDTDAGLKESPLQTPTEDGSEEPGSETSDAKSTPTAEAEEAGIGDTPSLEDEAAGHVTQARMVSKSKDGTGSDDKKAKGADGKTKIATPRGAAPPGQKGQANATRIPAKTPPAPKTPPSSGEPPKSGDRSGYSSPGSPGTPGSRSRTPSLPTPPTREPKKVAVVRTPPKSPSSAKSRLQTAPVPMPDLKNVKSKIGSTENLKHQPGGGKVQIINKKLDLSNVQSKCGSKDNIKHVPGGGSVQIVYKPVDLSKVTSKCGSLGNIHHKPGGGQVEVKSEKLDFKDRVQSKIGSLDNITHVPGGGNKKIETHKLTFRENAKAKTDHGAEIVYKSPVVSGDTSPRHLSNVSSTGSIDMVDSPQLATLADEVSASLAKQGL

| SMILES | pH effects on absorption and emission [1] | Fluorescence QY [2] [%] | competition with ThT on αS PFFs [3] | emission maximum bound to tau [4] [nm] | fluorescence turn on with BSA [5] | λmax (λem) with BSA ([5]; 10 μM probe, BSA 50 μM, excitation 418 nm) [nm] |
| --- | --- | --- | --- | --- | --- | --- |
| Cc1c(C)n2c(/C=C/c3ccc(N)cc3)c(C)c(=O)n2c1=O [Compound 7j, (E)-3-(4-aminostyryl)-2,5,6-trimethyl-1H,7H-pyrazolo[1,2-a]pyrazole-1,7-dione] | blue-shifted absorption and emission at pH 2 | 0.17 | – | – | – | – |
| Cc1c(C)n2c(/C=C/c3ccc(N4CCOCC4)cc3)c(C)c(=O)n2c1=O [Compound 7k, (E)-2,3,6-trimethyl-5-(4-morpholinostyryl)-1H,7H-pyrazolo[1,2-a]pyrazole-1,7-dione] | – | – | higher affinity compared than ThT | – | – | – |
| Cc1c(C)n2c(/C=C/c3ccc(N(C)C)cc3)c(C)c(=O)n2c1=O [Compound 7l, (E)-3-(4-(dimethylamino)styryl)-2,5,6-trimethyl-1H,7H-pyrazolo[1,2-a]pyrazole-1,7-dione] | – | 0.15 | – | 596 | turn-on was possible | 555 |
